Assays:
[1] = target: T1, human recombinant kinase full-length AKT1 E17K (Homo sapiens, UniProt P31749, E17K); assay: AKT1 E17K kinase assay (TR-FRET, Lance); format: biochemical; conditions: 0.6 nM AKT1 E17K, 50 nM Ulight-CREBtide, either 50 μM ATP or 2 mM ATP, 60 min at RT
T1 construct: Purified human recombinant kinase full-length AKT1 E17K was expressed in insect cells; made in house; host or cells: insect cells
Description: AKT1 E17K kinase assay: Inhibitory effects of compounds on AKT1 E17K were undertaken in a 10-pt dose response kinase activity assay measuring phospho-peptide product formation based on TR-FRET signal as described in the following paragraph.
(§1) Purified human recombinant kinase full-length AKT1 E17K was expressed in insect cells and activated in vitro by PDPK1. Ulight™-CREBtide (PerkinElmer, catalog number TRF0107) was used as the peptide substrate. The reaction buffer consisted of 50 mM HEPES pH 7.5, 10 mM MgCl2, 0.01% Triton X-100, 0.01% BSA, 2 mM DTT, 0.6 nM AKT1 E17K, 50 nM Ulight™-CREBtide and either 50 μM ATP or 2 mM ATP. The compound solution was prepared as 10 mM DMSO stock. For the assay, a 1.3 serial dilution 10-pt dose response of test compounds, in duplicate, for each concentration were dispensed into a 384-well plate (Corning, catalog number 4513). Final DMSO concentration in the assay was 1%. The enzyme mixture (5 μL, 1.2 nM) were added and the mixture was incubated for 15 min at RT prior to the start of the kinase reaction by the addition of 5 μL substrate mixture (100 nM Ulight™-CREBtide). The reaction was stopped after 60 min of incubation at RT by the addition of 10 μL of Detection Mix (PerkinElmer, #CR97-100) consisting of Europium-anti-phospho-CREB (Ser133) (Perkin Elmer, catalog number TRF0200). Incubation with the detection mix for a further 60 min allowed binding of antibody to the phospho-Ulight™ CREBtide. The fluorescence emissions at 620 nm and 665 nm after excitation at 350 nm was measured using Envision reader. The ratio of the emissions at 665 nm and at 620 nm provided the measure for the amount of phosphorylated CREBtide product of AKT1 E17K kinase activity. To determine the IC50 values, the data was normalized (enzyme reaction without inhibitor=0% inhibition, all other assay components but no enzyme=100% inhibition) and IC50 values were calculated by a 4-parameter fit using an in-house developed protocol.
Table 9 assigns each compound a code for potency in the AKT1 E 17K kinase assay: A, B, or C. According to the code, A represents an IC50 value <500 nM; B represents an IC50 value from ≥500 nM to <2000 nM; and C represents an IC50 value ≥2000 nM.

[2] = target: T2, human recombinant kinase full-length wildtype AKT1 (Homo sapiens, UniProt P31749); assay: AKT1 kinase assay (wildtype, TR-FRET, Lance); format: biochemical; conditions: 0.6 nM wildtype AKT1, 50 nM Ulight-CREBtide, either 50 μM ATP or 2 mM ATP, 60 min at RT
T2 construct: Purified human recombinant kinase full-length wildtype AKT1 was expressed in insect cells; made in house; host or cells: insect cells
Description: AKT1 kinase assay: Inhibitory effects of compounds on wildtype AKT1 were undertaken in a 10-pt dose response kinase activity assay measuring phospho-peptide product formation based on TR-FRET signal as described in the following paragraph.
as §1, with “full-length wildtype” for “full-length”, “AKT1” for “AKT1 E17K”, “AKT1,50” for “AKT1 E17K, 50”, “1:3” for “1.3”
The symbol +++ represents an IC50 value <20 μM; the symbol ++ represents an IC50 value from ≥20 μM to 80 μM.

T1 sequence (P31749 whole entry E17K): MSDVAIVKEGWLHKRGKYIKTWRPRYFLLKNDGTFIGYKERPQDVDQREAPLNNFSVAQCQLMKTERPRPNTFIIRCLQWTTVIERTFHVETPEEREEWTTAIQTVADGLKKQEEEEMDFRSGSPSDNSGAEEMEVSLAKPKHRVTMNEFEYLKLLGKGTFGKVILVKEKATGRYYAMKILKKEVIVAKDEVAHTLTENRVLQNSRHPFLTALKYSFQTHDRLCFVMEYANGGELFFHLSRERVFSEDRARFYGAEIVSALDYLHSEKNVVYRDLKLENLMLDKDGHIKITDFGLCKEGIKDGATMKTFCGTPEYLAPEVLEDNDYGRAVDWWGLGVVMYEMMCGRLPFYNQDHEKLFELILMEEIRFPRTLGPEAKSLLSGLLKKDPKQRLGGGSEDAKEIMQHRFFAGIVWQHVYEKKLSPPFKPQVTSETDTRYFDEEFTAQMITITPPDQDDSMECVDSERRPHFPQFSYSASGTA
T2 sequence (P31749 whole entry): as the sequence (P31749 whole entry E17K) above, with K17E counted along it

SMILES | IC50 [1] | IC50 [2]
Nc1ncccc1-c1nc2ccc(-c3ccccc3)nc2n1-c1ccc(CN2CCC(C(=O)O)CC2)c(F)c1 [Compound I-30, 1-(4-(2-(2-aminopyridin-3-yl)-5-phenyl-3H-imidazo[4,5-b]pyridin-3-yl)-2-fluorobenzyl)piperidine-4-carboxylic acid] | ≥ 2 µM | < 20 µM
Nc1ncccc1-c1nc2ccc(-c3ccccc3)nc2n1-c1ccc(CNC2CCC(C(=O)O)CC2)cc1 (stereo not shown) [Compound I-31, 4-((4-(2-(2-aminopyridin-3-yl)-5-phenyl-3H-imidazo[4,5-b]pyridin-3-yl)benzyl)amino)cyclohexane-1-carboxylic acid] | 0.5 to 2 µM | < 20 µM
Nc1ncccc1-c1nc2ccc(-c3ccccc3)cc2n1-c1ccc(NC(=O)[C@H]2CC[C@H](C(=O)O)CC2)nc1 [Compound I-32, (1r,4r)-4-((5-(2-(2-aminopyridin-3-yl)-6-phenyl-1H-benzo[d]imidazol-1-yl)pyridin-2-yl)carbamoyl)cyclohexane-1-carboxylic acid] | 0.5 to 2 µM | < 20 µM
Nc1ncccc1-c1nc2ccc(N3CCOCC3)cc2n1-c1ccc(NC(=O)[C@H]2CC[C@H](C(=O)O)CC2)cc1 [Compound I-33, (1r,4r)-4-((4-(2-(2-aminopyridin-3-yl)-6-morpholino-1H-benzo[d]imidazol-1-yl)phenyl)carbamoyl)cyclohexane-1-carboxylic acid] | ≥ 2 µM | < 20 µM
Nc1ncccc1-c1nc2ccc(C3CCOCC3)cc2n1-c1ccc(NC(=O)[C@H]2CC[C@H](C(=O)O)CC2)cc1 [Compound I-34, (1r,4r)-4-((4-(2-(2-aminopyridin-3-yl)-6-(tetrahydro-2H-pyran-4-yl)-1H-benzo[d]imidazol-1-yl)phenyl)carbamoyl)cyclohexane-1-carboxylic acid] | ≥ 2 µM | < 20 µM
CC(C)(C)c1ccc2nc(-c3cccnc3N)n(-c3ccc(NC(=O)[C@H]4CC[C@H](C(=O)O)CC4)cc3)c2c1 [Compound I-35, (1r,4r)-4-((4-(2-(2-aminopyridin-3-yl)-6-(tert-butyl)-1H-benzo[d]imidazol-1-yl)phenyl)carbamoyl)cyclohexane-1-carboxylic acid] | ≥ 2 µM | < 20 µM
Nc1ncccc1-c1nc2ccc(-c3ccccc3)nc2n1-c1ccc(C2CN(C[C@H]3CC[C@@H](C(=O)O)CC3)C2)cc1 [Compound I-36, (1s,4s)-4-((3-(4-(2-(2-aminopyridin-3-yl)-5-phenyl-3H-imidazo[4,5-b]pyridin-3-yl)phenyl)azetidin-1-yl)methyl)cyclohexane-1-carboxylic acid] | 0.5 to 2 µM | < 20 µM

Further lines, results first:

IC50 [1] | IC50 [2] | SMILES
≥ 2 µM | < 20 µM | CC(C(=O)O)C1CCN(c2ccc(-n3c(-c4cccnc4N)nc4ccc(-c5ccccc5)nc43)cn2)C1 (stereo not shown) [Compound I-26, 2-(1-(5-(2-(2-aminopyridin-3-yl)-5-phenyl-3H-imidazo[4,5-b]pyridin-3-yl)pyridin-2-yl)pyrrolidin-3-yl)propanoic acid]
0.5 to 2 µM | < 20 µM | Nc1ncccc1-c1nc2ccc(-c3ccccc3)nc2n1-c1ccc(N2CCC(C(=O)O)CC2)nc1 [Compound I-27, 1-(5-(2-(2-aminopyridin-3-yl)-5-phenyl-3H-imidazo[4,5-b]pyridin-3-yl)pyridin-2-yl)piperidine-4-carboxylic acid]
≥ 2 µM | < 20 µM | Nc1ncccc1-c1nc2ccc(-c3ccccc3)nc2n1-c1ccc(N2CCCC(C(=O)O)C2)nc1 (stereo not shown) [Compound I-28, 1-(5-(2-(2-aminopyridin-3-yl)-5-phenyl-3H-imidazo[4,5-b]pyridin-3-yl)pyridin-2-yl)piperidine-3-carboxylic acid]
0.5 to 2 µM | < 20 µM | Nc1ncccc1-c1nc2ccc(-c3ccccc3)nc2n1-c1ccc(CN2CCC(C(=O)O)CC2)cc1 [Compound I-29, 1-(4-(2-(2-aminopyridin-3-yl)-5-phenyl-3H-imidazo[4,5-b]pyridin-3-yl)benzyl)piperidine-4-carboxylic acid]

— patent US20260200920A1, “SUBSTITUTED AMINOPYRIDINE COMPOUNDS FOR USE AS AKT1 INHIBITORS” (Atavistik Bio, Inc., priority 2023, published 2026)
